Results on 18 compounds are retold here after US9776987B2, “Amide derivatives for GPR119 agonist” (CHONG KUN DANG PHARMACEUTICAL CORP., priority 2013, dated 2017).

≈ marks a conversion by molar mass, not a printed value. Like-named read-outs stand apart in the source and are kept apart here.

Data set [1] is described as follows: Solubility test of GPR 119 agonist compounds (Nephelostar). The data set is classed as physicochemical. As to conditions: aqueous with cosolvent or surfactant or cyclodextrin, kinetic from dmso stock. The procedure: 1. Method of Solubility Test
Each test compounds were dissolved in 5% DMSO aqueous solution as a solvent at several concentrations. When a laser was irradiated to the solution, the particles, which are not dissolved in the solvent, scatter the light. The level of the scattered light is dependent to the number of the particles, so the solubility of the test compound in the solution can be determined using the relationship. As the test equipment, Nephelostar was used.

Data set [2] has as its target T1, human GPR119 receptor (Homo sapiens, UniProt Q8TDV5).
T1 construct: host or cells: GeneBLAzer T-Rex GPR 119 CHO-K1 DA cells (CHO-K1)
T1 sequence (Q8TDV5 1-335): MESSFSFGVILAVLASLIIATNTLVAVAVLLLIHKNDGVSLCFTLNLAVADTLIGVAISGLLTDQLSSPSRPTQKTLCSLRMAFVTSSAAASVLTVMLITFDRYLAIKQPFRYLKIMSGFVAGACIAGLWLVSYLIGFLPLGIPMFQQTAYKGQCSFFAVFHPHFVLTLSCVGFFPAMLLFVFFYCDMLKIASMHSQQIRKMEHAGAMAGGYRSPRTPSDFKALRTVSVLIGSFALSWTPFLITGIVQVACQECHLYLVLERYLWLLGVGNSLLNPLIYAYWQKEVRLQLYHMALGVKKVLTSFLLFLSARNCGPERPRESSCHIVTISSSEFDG
As to the kind of experiment: Activity test for human GPR119 receptor (GeneBLAzer T-Rex GPR 119 CHO-K1 DA cells). The data set is classed as cell-based. The following applies: for EC50: human GPR119 receptor expressing CHO-K1 cells, 5 hours treatment, read-out: hGPR119 EC50; for activity for human GPR119 receptor (in words): judgement on the EC50 values of Table 11. On the procedure:
1. Human GPR119 Receptor Cell
As a human GPR119 receptor expression cell for this test, the cell line “GeneBLAzer™ T-Rex GPR 119 CHO-K1 DA cells” that is commercially available from Invitrogen, was used. The cell was incubated in the DMEM media containing 1% dialyzed fetal bovine serum etc. The cell incubator was kept at constant temperature and constant humidity of 37° C., 5% CO2.
2. Activity Test for Human GPR119 Receptor
The human GPR119 receptor expressing cell was used to this test. Each of test compounds was added to be final concentrations of 0.1, 1, 10 μM in 96 well and tested in duplicate. A fixed amount of cell was added to each well of 96 well separately, and then treated with the test compound for 5 hours. After treatment of color development agent for 2 hours, the fluorescence value was determined with plate reader. To the luminous wavelength of control well, which was not treated with the sample, but in which only a vehicle […] was contained, the ratio of the luminous wavelength of test well, which was treated with the sample, was calculated, and then converted to obtain EC50 value.
3. Statistical Processing
All the results were expressed as mean±SD, and each test groups and the control group were compared using student's t-test to adjudge the effects of each test groups.

[3] abbreviates: pH 2, 5% DMSO aqueous solution, read-out: Solubility pH 2.
The mark [4] stands for this setting: pH 4, 5% DMSO aqueous solution, read-out: Solubility pH 4.
[5] abbreviates: pH 6, 5% DMSO aqueous solution, read-out: Solubility pH 6.
The mark [6] stands for this setting: pH 8, 5% DMSO aqueous solution, read-out: Solubility pH 8.

On to `CCC(F)(CC)CN1CCC(COc2ccc(-c3ccc(C(=O)N4C[C@H](O)C[C@H]4C(N)=O)cc3F)cc2)CC1` [Compound 1205], for which the solubility is greater than 271 µg/mL in data set [1] (setting [3]), greater than 271 µg/mL in data set [1] (setting [4]), 157 µg/mL (≈ 289 µM) in data set [1] (setting [5]) and 55 µg/mL (≈ 101 µM) in data set [1] (setting [6]). Moreover, the 50% effective concentration (EC50) in data set [2] came out at 2 nM.

Regarding `C[C@@]1(C(N)=O)CCCN1C(=O)c1ccc(-c2cnc(OCC3CCN(CC4(C(F)(F)F)CCC4)CC3)cn2)cc1F` [Compound 1263, (S)-1-(2-fluoro-4-(5-((1-((1-(trifluoromethyl)cyclobutyl)methyl)piperidin-4-yl)methoxy)pyrazin-2-yl)benzoyl)-2-methylpyrrolidin-2-carboxamide], in data set [2], the EC50 is 0.04 nM and the “activity for human GPR119 receptor (in words)” value (“activity” for short) is “excellent activity”.

Turning to `NC(=O)[C@@H]1CCCN1C(=O)c1ccc(-c2ccc(OCC3CCN(CC(F)(F)C(F)(F)F)CC3)cn2)cc1F` [Compound 1264, (S)-1-(2-fluoro-4-(5-((1-(2,2,3,3,3-pentafluoropropyl)piperidin-4-yl)methoxy)pyridin-2-yl)benzoyl)pyrrolidin-2-carboxamide], in data set [2], the half-maximal effective concentration (EC50) was 0.09 nM and the “activity” value is reported as “excellent activity”.

`NC(=O)[C@@H]1C[C@@H](O)CN1C(=O)c1ccc(-c2ccc(OCC3CCN(CC(F)(F)C(F)(F)F)CC3)cn2)cc1F` [Compound 1265, (2S,4R)-1-(2-fluoro-4-(5-((1-(2,2,3,3,3-pentafluoropropyl)piperidin-4-yl)methoxy)pyridin-2-yl)benzoyl)-4-hydroxypyrrolidin-2-carboxamide]: in data set [2], the EC50 is 0.05 nM and the “activity” value is on record as “excellent activity”.

Take `CC(C)(CN1CCC(COc2ccc(-c3ccc(C(=O)N4CCC[C@H]4C(N)=O)c(F)c3)nc2)CC1)C(F)(F)F` [Compound 1267, (S)-1-(2-fluoro-4-(5-((1-(3,3,3-trifluoro-2,2-dimethylpropyl)piperidin-4-yl)methoxy)pyridin-2-yl)benzoyl)pyrrolidin-2-carboxamide]: in data set [2], the EC50 came out at 0.09 nM and the “activity” value is “excellent activity”.

As for `CC(C)(CN1CCC(COc2ccc(-c3ccc(C(=O)N4C[C@H](O)C[C@H]4C(N)=O)c(F)c3)nc2)CC1)C(F)(F)F` [Compound 1268, (2S,4R)-1-(2-fluoro-4-(5-((1-(3,3,3-trifluoro-2,2-dimethylpropyl)piperidin-4-yl)methoxy)pyridin-2-yl)benzoyl)-4-hydroxypyrrolidin-2-carboxamide], the solubility is greater than 283 µg/mL in data set [1] (setting [3]), greater than 283 µg/mL in data set [1] (setting [4]), greater than 283 µg/mL in data set [1] (setting [5]) and 54 µg/mL (≈ 95.3 µM) in data set [1] (setting [6]). Besides, the concentration giving a half-maximal response (EC50) in data set [2] came out at 0.07 nM. Also, the “activity” value in data set [2] was “excellent activity”.

Take `CC(C)(CN1CCC(COc2ccc(-c3ccc(C(=O)N4CCC[C@@]4(C)C(N)=O)c(F)c3)nc2)CC1)C(F)(F)F` [Compound 1269, (S)-1-(2-fluoro-4-(5-((1-(3,3,3-trifluoro-2,2-dimethylpropyl)piperidin-4-yl)methoxy)pyridin-2-yl)benzoyl)-2-methylpyrrolidin-2-carboxamide]: in data set [2], the 50% effective concentration (EC50) is 0.09 nM and the “activity” value is on record as “excellent activity”.

`CC(C)(F)CN1CCC(COc2ccc(-c3ccc(C(=O)N4C[C@H](O)C[C@@]4(C)C(N)=O)c(F)c3)cc2C#N)CC1` [Compound 1276, (2S,4R)-1-(3′-cyano-3-fluoro-4′-((1-(2-fluoro-2-methylpropyl)piperidin-4-yl)methoxy)biphenylcarbonyl)-4-hydroxy-2-methylpyrrolidin-2-carboxamide]: the EC50 in data set [2] stood at 24 nM.

Turning to `NC(=O)[C@@H]1C[C@@H](O)CN1C(=O)c1ccc(-c2ccc(OCC3CCN(CC4(C(F)(F)F)CCC4)CC3)cn2)cc1F` [Compound 1280, (2S,4R)-1-(2-fluoro-4-(5-((1-((1-(trifluoromethyl)cyclobutyl)methyl)piperidin-4-yl)methoxy)pyridin-2-yl)benzoyl)-4-hydroxypyrrolidin-2-carboxamide], in data set [2], the concentration giving a half-maximal response (EC50) is 38 nM and the “activity” value is on record as “excellent activity”.

Regarding `NC(=O)[C@@H]1C[C@@H](O)CN1C(=O)c1ccc(-c2ccc(OCC3CCN(CC4(C(F)(F)F)CCC4)CC3)cn2)c(F)c1` [Compound 1286, (2S,4R)-1-(3-fluoro-4-(5-((1-((1-(trifluoromethyl)cyclobutyl)methyl)piperidin-4-yl)methoxy)pyridin-2-yl)benzoyl)-4-hydroxypyrrolidin-2-carboxamide], the solubility was greater than 289 µg/mL in data set [1] (setting [3]), greater than 289 µg/mL in data set [1] (setting [4]), greater than 289 µg/mL in data set [1] (setting [5]) and 108 µg/mL (≈ 187 µM) in data set [1] (setting [6]). The 50% effective concentration (EC50) in data set [2] was determined as 3 nM. The “activity” value in data set [2] is reported as “excellent activity”.

`CCC(F)(CC)CN1CCC(COc2ccc(-c3ccc(C(=O)N4C[C@H](O)C[C@H]4C(N)=O)cc3F)nc2)CC1` [Compound 1287, (2S,4R)-1-(4-(5-((1-(2-ethyl-2-fluorobutyl)piperidin-4-yl)methoxy)pyridin-2-yl)-3-fluorobenzoyl)-4-hydroxypyrrolidin-2-carboxamide]: in data set [2], the EC50 was found to be 20 nM.

For the compound `CC(C)(CN1CCC(COc2ccc(-c3ccc(C(=O)N4C[C@H](O)C[C@@]4(C)C(N)=O)c(F)c3)cn2)CC1)C(F)(F)F` [Compound 1295, (2S,4R)-1-(2-fluoro-4-(6-((1-(3,3,3-trifluoro-2,2-dimethylpropyl)piperidin-4-yl)methoxy)pyridin-3-yl)benzoyl)-4-hydroxy-2-methylpyrrolidin-2-carboxamide], in data set [2], the EC50 was 18 nM and the “activity” value is “excellent activity”.

Turning to `C[C@@]1(C(N)=O)CCCN1C(=O)c1ccc(-c2ccc(OCC3CCN(CC4(C(F)(F)F)CCC4)CC3)cn2)cc1F` [Compound 1297, (S)-1-(2-fluoro-4-(5-((1-((1-(trifluoromethyl)cyclobutyl)methyl)piperidin-4-yl)methoxy)pyridin-2-yl)benzoyl)-2-methylpyrrolidin-2-carboxamide], in data set [2], the concentration giving a half-maximal response (EC50) worked out at 4 nM and the “activity” value is recorded as “excellent activity”.

As for `CCC(F)(CC)CN1CCC(COc2ccc(-c3ccc(C(=O)N4CCC[C@@]4(C)C(N)=O)c(F)c3)nc2)CC1` [Compound 1299, (S)-1-(4-(5-((1-(2-ethyl-2-fluorobutyl)piperidin-4-yl)methoxy)pyridin-2-yl)-2-fluorobenzoyl)-2-methylpyrrolidin-2-carboxamide], in data set [2], the EC50 stood at 9 nM and the “activity” value is given as “excellent activity”.

On to `CCC(F)(CC)CN1CCC(COc2ccc(-c3ccc(C(=O)N4C[C@H](O)C[C@@]4(C)C(N)=O)cc3)nc2)CC1` [Compound 1309, (2S,4R)-1-(4-(5-((1-(2-ethyl-2-fluorobutyl)piperidin-4-yl)methoxy)pyridin-2-yl)benzoyl)-4-hydroxy-2-methylpyrrolidin-2-carboxamide], for which the EC50 in data set [2] was 47 nM.

As to `NC(=O)[C@@H]1C[C@@H](O)CN1C(=O)c1ccc(-c2ccc(OCC3CCN(CC4(C(F)(F)F)CCC4)CC3)nc2)cc1F` [Compound 1317, (2S,4R)-1-(2-fluoro-4-(6-((1-((1-(trifluoromethyl)cyclobutyl)methyl)piperidin-4-yl)methoxy)pyridin-3-yl)benzoyl)-4-hydroxypyrrolidin-2-carboxamide], the concentration giving a half-maximal response (EC50) in data set [2] worked out at 60 nM.

With `CCC(F)(CC)CN1CCC(COc2ccc(-c3ccc(C(=O)N4C[C@H](O)C[C@@H]4C(N)=O)cc3F)cc2)CC1` [Compound 1321, (2R,4R)-1-(4′-((1-(2-ethyl-2-fluorobutyl)piperidin-4-yl)methoxy)-2-fluorobiphenylcarbonyl)-4-hydroxypyrrolidin-2-carboxamide], the EC50 in data set [2] stood at 53 nM.

For the compound `C[C@@]1(C(N)=O)C[C@@H](O)CN1C(=O)c1ccc(-c2ccc(OCC3CCN(CC4(C(F)(F)F)CCC4)CC3)nc2)cc1F` [Compound 1326, (2S,4R)-1-(2-fluoro-4-(6-((1-((1-(trifluoromethyl)cyclobutyl)methyl)piperidin-4-yl)methoxy)pyridin-3-yl)benzoyl)-4-hydroxy-2-methylpyrrolidin-2-carboxamide], in data set [2], the concentration giving a half-maximal response (EC50) came to 50 nM.

Usually solubility stands for the dissolved amount per volume that the medium holds. One may read the EC50 as the concentration needed to bring the measured effect to its halfway point.
